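Step 1: Grow cells in 96-well plates. Step 2: Expose to compound for 48 hours at 5 concentrations. Step 3: Interpolate endpoints linearly; if unreached, use highest concentration. Here, GI50 denotes the concentration required for 50% inhibition of growth.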 Activity calls are given as the source filed them. Cut-off read from the data, not from the text of the source: active = GI50 up to about 1.1 µM and inactive = higher.
Tests used:
Experiment in all cases: inhibition of tumour cell growth, NCI panel, 48 h
SNB-78 = system: SNB-78
RXF 631 = system: RXF 631
DLD-1 = system: DLD-1
LXFL 529 = system: LXFL 529
DMS-273 = system: DMS-273
M19-MEL = system: M19-MEL
DMS-114 = system: DMS-114
KM-20L2 = system: KM-20L2
XF498 = system: XF498

Measured: GI50

COc1ccc2c(c1)[n+]([O-])c(C(N)=O)c(N)[n+]2[O-]
inactive: SNB-78 > 100 µM | RXF 631 34 µM | DLD-1 > 100 µM | LXFL 529 66.4 µM | DMS-273 71.9 µM | M19-MEL 73.3 µM | DMS-114 35.6 µM | KM-20L2 37.2 µM

COC1/C(=C\C(C)=O)c2ccccc2N1C(C)=O (stereo not given)
inactive: RXF 631 > 100 µM | DLD-1 > 100 µM | XF498 > 100 µM | LXFL 529 > 100 µM | DMS-273 > 100 µM | M19-MEL > 100 µM | KM-20L2 > 100 µM

CCOC(=O)C/C(=N\c1cc(C)on1)N(CC)CC.[O-][Cl+3]([O-])([O-])O
inactive: SNB-78 > 100 µM | DLD-1 > 100 µM | XF498 > 100 µM | LXFL 529 > 100 µM | DMS-273 > 100 µM | M19-MEL > 100 µM | DMS-114 > 100 µM | KM-20L2 > 100 µM

CCn1c(O)c(C(=O)Nc2cccs2)c(=O)n(CC)c1=S
inactive: SNB-78 17.8 µM | RXF 631 19 µM | DLD-1 33.3 µM | LXFL 529 14.9 µM | M19-MEL 19.1 µM | DMS-114 15.4 µM | KM-20L2 17.7 µM

CC1(SCC(N)C(=O)O)CC(=O)NC1=O (stereo not given)
inactive: SNB-78 > 100 µM | LXFL 529 > 100 µM | DMS-273 > 100 µM | M19-MEL > 100 µM | DMS-114 > 100 µM | KM-20L2 > 100 µM

O=[N+]([O-])c1ccc(/C=C/c2ccc(/C=C/c3ccc([N+](=O)[O-])cc3[N+](=O)[O-])cc2)c([N+](=O)[O-])c1
inactive: SNB-78 > 100 µM | DLD-1 > 100 µM | XF498 > 100 µM | LXFL 529 > 100 µM | DMS-273 > 100 µM | DMS-114 > 100 µM | KM-20L2 > 100 µM

COc1ccc2c(C(=O)O)cc3cc(OC)c(OC)cc3c2c1
inactive: SNB-78 > 100 µM | RXF 631 > 100 µM | DLD-1 > 100 µM | XF498 > 100 µM | LXFL 529 > 100 µM | DMS-273 > 100 µM | M19-MEL > 100 µM | KM-20L2 > 100 µM

Nc1nc(SCc2ccccc2Cl)c2ncn(C3OC(CO)C(O)C3O)c2n1 (stereo not given)
inactive: DLD-1 > 100 µM | LXFL 529 50.9 µM | DMS-273 65.6 µM | M19-MEL > 100 µM | DMS-114 43.5 µM | KM-20L2 > 100 µM

CSc1cnc2ccccc2c1Sc1c[nH]c2ccccc2c1=O
inactive: SNB-78 57.3 µM | DLD-1 11.7 µM | LXFL 529 8.67 µM | DMS-273 8.38 µM | M19-MEL 5.22 µM | DMS-114 5.7 µM | KM-20L2 4.42 µM

N#Cc1c(NN)nc(NN)c(C#N)c1-c1ccccc1
inactive: SNB-78 > 100 µM | RXF 631 > 100 µM | DLD-1 > 100 µM | XF498 > 100 µM | LXFL 529 > 100 µM | DMS-273 > 100 µM | M19-MEL > 100 µM | DMS-114 > 100 µM | KM-20L2 > 100 µM

C1CN(c2nnc(N3CCC3)nn2)C1
inactive: SNB-78 57.4 µM | RXF 631 > 10 µM | DLD-1 > 100 µM | XF498 22.2 µM | LXFL 529 21.3 µM | DMS-273 > 43.2 µM | M19-MEL 15.1 µM | DMS-114 21.3 µM | KM-20L2 > 44.8 µM

COc1ccc(Br)c(CCCCC(=O)O)c1
inactive: SNB-78 > 100 µM | DLD-1 > 100 µM | XF498 > 100 µM | LXFL 529 > 100 µM | DMS-273 > 100 µM | M19-MEL > 100 µM | DMS-114 > 100 µM | KM-20L2 > 100 µM

COC(=O)Cc1cc(=O)[nH]c2c1C(=O)CCC2
inactive: DLD-1 > 100 µM | XF498 > 100 µM | LXFL 529 > 100 µM

COc1ccc(/C(Cl)=C/c2ccc(Cl)c(Cl)c2)cc1
inactive: SNB-78 23.6 µM | DLD-1 25.9 µM | XF498 22.4 µM | LXFL 529 33.8 µM | DMS-273 24.4 µM | M19-MEL 30.6 µM | DMS-114 16.6 µM | KM-20L2 22.8 µM

NC1=NC(=O)C(CC(=O)Nc2ccc([N+](=O)[O-])cc2[N+](=O)[O-])S1 (stereo not given)
inactive: SNB-78 > 100 µM | RXF 631 > 100 µM | DLD-1 > 100 µM | XF498 > 100 µM | LXFL 529 > 100 µM | M19-MEL > 100 µM | DMS-114 > 100 µM | KM-20L2 > 100 µM

c1ccc2cc(-c3cc4ccccc4s3)ccc2c1
inactive: SNB-78 > 100 µM | DLD-1 > 100 µM | XF498 > 100 µM | DMS-273 > 100 µM | M19-MEL > 100 µM | DMS-114 > 100 µM | KM-20L2 > 100 µM

CC(=O)CC(=O)CCCC(=O)Nc1ccc(Cl)cc1C
inactive: SNB-78 > 100 µM | RXF 631 > 100 µM | DLD-1 > 100 µM | LXFL 529 > 100 µM | DMS-273 > 100 µM | M19-MEL > 100 µM | DMS-114 > 100 µM | KM-20L2 > 100 µM

O=[N+]([O-])c1cc2c(cc1O)[nH]c1cccc([N+](=O)[O-])c12
inactive: SNB-78 > 100 µM | DLD-1 > 100 µM | XF498 > 100 µM | DMS-273 > 100 µM | M19-MEL > 100 µM | DMS-114 > 100 µM

COc1ccc(NC(=O)CC(=O)n2nc(-c3ccccc3)c(/N=N/c3ccccc3C(=O)O)c2-c2ccccc2)cc1
inactive: RXF 631 > 100 µM | DLD-1 > 100 µM | LXFL 529 > 100 µM | DMS-273 > 100 µM | M19-MEL > 100 µM | DMS-114 > 100 µM | KM-20L2 > 100 µM

O=C(CC1(O)C(=O)Nc2ccccc21)c1ccco1 (stereo not given)
inactive: SNB-78 > 100 µM | DLD-1 > 100 µM | XF498 > 100 µM | LXFL 529 > 100 µM | DMS-273 > 100 µM | M19-MEL > 100 µM | DMS-114 > 100 µM | KM-20L2 > 100 µM

O=S(=O)(O)CS(=O)(=O)OCCCl
inactive: SNB-78 > 100 µM | RXF 631 > 100 µM | DLD-1 > 100 µM | XF498 > 100 µM | LXFL 529 > 100 µM | DMS-273 > 100 µM | M19-MEL > 100 µM | DMS-114 > 100 µM | KM-20L2 > 100 µM

S=c1sc2c(n1-c1ccccc1)N=CNC2S (stereo not given)
inactive: SNB-78 87.5 µM | DLD-1 > 100 µM | XF498 > 100 µM | LXFL 529 > 100 µM | DMS-273 > 100 µM | M19-MEL 96.4 µM | DMS-114 31.1 µM | KM-20L2 > 100 µM

CCC(=O)c1cn(C)c(=O)c2ccccc12
inactive: SNB-78 > 100 µM | RXF 631 > 100 µM | DLD-1 > 100 µM | XF498 > 100 µM | LXFL 529 > 100 µM | DMS-273 > 100 µM | DMS-114 > 100 µM | KM-20L2 > 100 µM

From ChEMBL document CHEMBL1201862, “PubChem BioAssay data set” (2004)
